Data as given in patent US9868746B2, “Substituted 5-aminothieno[2,3-C]pyridazine-6-carboxamide analogs as positive allosteric modulators of the muscarinic acetylcholine receptor M4” (Vanderbilt University, priority 2012, dated 2018).

Biological target: T1, mAChR M4 (Homo sapiens, UniProt P08173)
T1 construct: expressed in transfected cells; host or cells: CHO-K1 cells stably transfected with M4 cDNA and chimeric G-protein Gqi5
T1 sequence (P08173 1-479): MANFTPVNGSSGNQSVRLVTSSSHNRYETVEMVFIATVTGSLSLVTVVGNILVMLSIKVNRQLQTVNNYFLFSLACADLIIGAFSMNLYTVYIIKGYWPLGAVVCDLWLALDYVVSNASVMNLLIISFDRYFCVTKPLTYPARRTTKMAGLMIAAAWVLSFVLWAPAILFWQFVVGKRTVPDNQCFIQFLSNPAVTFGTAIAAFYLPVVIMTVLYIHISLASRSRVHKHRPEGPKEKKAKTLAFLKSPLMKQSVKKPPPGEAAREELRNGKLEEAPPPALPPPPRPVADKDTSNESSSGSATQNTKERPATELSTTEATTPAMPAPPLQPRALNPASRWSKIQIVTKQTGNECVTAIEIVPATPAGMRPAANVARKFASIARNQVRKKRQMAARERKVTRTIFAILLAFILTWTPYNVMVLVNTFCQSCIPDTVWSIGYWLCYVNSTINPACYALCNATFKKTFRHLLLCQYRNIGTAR
Assay: mAChR M4 cell-based functional assay (calcium mobilization, potentiation of EC20 acetylcholine response)
Conditions: for EC50: mAChR M4 cell-based functional assay, >10,000 estimated for low potency compounds without plateau, read-out: EC50

Row | Compound | Emax at 30 µM (% ACh maximum at 30 μM) | EC50 | Emax (%)* (% ACh maximum at 30 μM)
1 | COC1(C)CN(C(=O)c2sc3nnc(C)c(C)c3c2N)C1 [Example B292] | 62% | > 10000 nM | –
2 | Cc1nnc2sc(C(=O)NCc3nccs3)c(N)c2c1C [Example B11] | 82% | 1500 nM | –
3 | Cc1nnc2sc(C(=O)NC3CCN(C(=O)OC(C)C)C3)c(N)c2c1C (centres unmarked) [Example B222] | 50% | > 10000 nM | –
4 | Cc1nnc2sc(C(=O)NC3CCN(C(=O)c4ccc(F)cc4)C3)c(N)c2c1C (centres unmarked) [Example B219] | 77% | 350 nM | –
5 | Nc1c(C(=O)NCc2ccc(S(=O)(=O)C(F)F)cc2)sc2nnc3c(c12)CCCC3 [Example B427] | 39% | 59 nM | –
6 | Cc1nnc2sc(C(=O)NC3CN(S(=O)(=O)c4ccccc4)C3)c(N)c2c1C [Example B159] | 56% | 81 nM | –
7 | Cc1nnc2sc(C(=O)N3CC4CN(c5ccccn5)CC4C3)c(N)c2c1C (centres unmarked) [Example B287] | 58% | 250 nM | –
8 | Cc1nnc2sc(C(=O)N3CC(F)(C4CCCCC4)C3)c(N)c2c1C [Example B296] | 67% | 280 nM | –
9 | COc1cc(CNC(=O)c2sc3nnc(C)c(C)c3c2N)ccn1 [Example B289] | 69% | 230 nM | –
10 | Cc1nnc2sc(C(=O)NCc3ccc4c(c3)OCO4)c(N)c2c1C [Example B12] | 90% | 93 nM | –
11 | CCCCC(=O)N1CC2CN(C(=O)c3sc4nnc(C)c(C)c4c3N)CC2C1 (centres unmarked) [Example B389] | 47% | 1300 nM | –
12 | Cc1nnc2sc(C(=O)NCc3ccc(OC(F)(F)F)cc3)c(N)c2c1C [Example B181] | 68% | 30 nM | –
13 | Cc1nnc2sc(C(=O)NC3CCC3)c(N)c2c1C [Example B84] | 61% | 1000 nM | –
14 | Cc1nnc2sc(C(=O)NC3CCN(S(C)(=O)=O)C3)c(N)c2c1C (centres unmarked) [Example B252] | 83% | 1700 nM | –
15 | Cc1nnc2sc(C(=O)N3CC(NS(C)(=O)=O)C3)c(N)c2c1C [Example B172] | 51% | > 10000 nM | –
16 | Cc1nnc2sc(C(=O)NC3CCN(C(=O)C4CCCCC4)C3)c(N)c2c1C (centres unmarked) [Example B226] | 84% | 430 nM | –
17 | [2H]C([2H])(NC(=O)c1sc2nnc(C)c(C)c2c1N)c1ccc(S(=O)(=O)C(F)F)cc1 [Example B477] | 74% | 23 nM | –
18 | Cc1nnc2sc(C(=O)N3CCC(NC(=O)CC4CCCCC4)C3)c(N)c2c1C (centres unmarked) [Example B230] | 63% | 3400 nM | –
19 | Cc1nnc2sc(C(=O)N3CC(NCc4ccncc4)C3)c(N)c2c1C [Example B60] | 41% | > 10000 nM | –
20 | Cc1nnc2sc(C(=O)NCc3cnn(C)c3)c(N)c2c1C [Example B89] | 58% | 320 nM | –
21 | Nc1c(C(=O)NCc2ccc(S(=O)(=O)CF)cc2)sc2nnc3c(c12)CCCC3 [Example B428] | 51% | 88 nM | –
22 | Cc1nnc2sc(C(=O)N3CCC(c4ccccc4)C3)c(N)c2c1C (centres unmarked) [Example B112] | 61% | 630 nM | –

Row | Compound | Emax at 30 µM (% ACh maximum at 30 μM) | EC50 | Emax (%)* (% ACh maximum at 30 μM)
23 | Cc1nnc2sc(C(=O)N3CC(F)(c4ccc(-c5ccncc5)cc4)C3)c(N)c2c1C [Example B318] | 35% | 290 nM | –
24 | Cc1nnc2sc(C(=O)NC3CCN(S(=O)(=O)c4ccc(OC(F)(F)F)cc4)C3)c(N)c2c1C (centres unmarked) [Example B245] | 73% | 1200 nM | –
25 | Nc1c(C(=O)NC2CC2)sc2nnccc12 [Example B1] | 40% | > 10000 nM | –
26 | Cc1nnc2sc(C(=O)NCc3ccc(F)cc3)c(N)c2c1C [Example B435] | 68% | 180 nM | –
27 | Cc1nc(C)c(S(=O)(=O)N2CC(NC(=O)c3sc4nnc(C)c(C)c4c3N)C2)s1 [Example B103] | 69% | 94 nM | –
28 | Cc1nnc2sc(C(=O)NCc3cccnc3)c(N)c2c1C [Example B316] | 73% | 310 nM | –
29 | COc1cccc(S(=O)(=O)N2CC(NC(=O)c3sc4nnc(C)c(C)c4c3N)C2)c1 [Example B137] | 70% | 100 nM | –
30 | Cc1nnc2sc(C(=O)NCCNC(=O)Oc3ccccc3)c(N)c2c1C [Example B374] | – | > 10000 nM | 33%
31 | Cc1nnc2sc(C(=O)NC3CCN(c4ccccc4Cl)C3)c(N)c2c1C (centres unmarked) [Example B264] | 71% | 38 nM | –
32 | Cc1nnc2sc(C(=O)N3CC4CN(c5cccc(F)n5)CC4C3)c(N)c2c1C (centres unmarked) [Example B442] | 66% | 310 nM | –
33 | Nc1c(C(=O)NCc2cccc(F)c2)sc2nnccc12 [Example B21] | 59% | > 10000 nM | –
34 | Cc1nnc2sc(C(=O)NC3CN(C(=O)Oc4cc(F)cc(F)c4)C3)c(N)c2c1C [Example B370] | 61% | 10 nM | –
35 | Cc1nnc2sc(C(=O)NC3CN(C(=O)CCc4ccccc4)C3)c(N)c2c1C [Example B129] | 80% | 110 nM | –
36 | Cc1nnc2sc(C(=O)NC3CCN(C(=O)CCc4ccccc4)C3)c(N)c2c1C (centres unmarked) [Example B221] | 72% | 1300 nM | –
37 | Cc1nnc2sc(C(=O)NC3CN(C(=O)c4ccc(F)cc4F)C3)c(N)c2c1C [Example B391] | 88% | 300 nM | –
38 | COc1ccc(C2CC2NC(=O)c2sc3nnc4c(c3c2N)CCCC4)cc1 (centres unmarked) [Example B55] | 48% | 47 nM | –
39 | COc1ccc(CNC(=O)c2sc3nnc(C)c(C)c3c2N)c(F)c1 [Example B475] | 61% | 24 nM | –
40 | Nc1c(C(=O)NCc2ccc3c(c2)OC(F)(F)O3)sc2nnc3c(c12)CCCC3 [Example B53] | 42% | 170 nM | –
41 | COc1ccccc1N1CCC(NC(=O)c2sc3nnc(C)c(C)c3c2N)C1 (centres unmarked) [Example B271] | 71% | 3000 nM | –
42 | Cc1nnc2sc(C(=O)N3CC(F)(c4cccc(F)c4)C3)c(N)c2c1C [Example B293] | 46% | 150 nM | –
43 | Cc1nnc2sc(C(=O)N3CC(NCc4ccccc4)C3)c(N)c2c1C [Example B65] | 56% | 3600 nM | –
44 | Cc1ccc(C(=O)NC2CCN(C(=O)c3sc4nnc(C)c(C)c4c3N)C2)cc1 (centres unmarked) [Example B225] | 62% | 1400 nM | –

Row | Compound | Emax at 30 µM (% ACh maximum at 30 μM) | EC50 | Emax (%)* (% ACh maximum at 30 μM)
45 | Cc1nnc2sc(C(=O)NCc3ccc(C(C)(O)C(F)(F)F)cc3)c(N)c2c1C (single isomer, unassigned) [Example B186] | 75% | 19 nM | –
46 | Cc1nnc2sc(C(=O)N3CC4(CN(C(=O)OCc5ccccc5)C4)C3)c(N)c2c1C [Example B398] | 47% | 1000 nM | –
47 | CC(=O)NC1CN(C(=O)c2sc3nnc(C)c(C)c3c2N)C1 [Example B157] | 32% | > 10000 nM | –
48 | Cc1nnc2sc(C(=O)N3CC4CN(C(=O)c5ccc(F)cc5)CC4C3)c(N)c2c1C (centres unmarked) [Example B331] | 58% | 3600 nM | –
49 | Cc1nnc2sc(C(=O)NC3CCN(c4ccccc4C(F)(F)F)C3)c(N)c2c1C (centres unmarked) [Example B284] | 71% | 150 nM | –
50 | Cc1nnc2sc(C(=O)N[C@@H]3C[C@H]3c3ccc(S(C)(=O)=O)cc3)c(N)c2c1C (single isomer, unassigned) [Example B111] | 60% | 240 nM | –
51 | Cc1nnc2sc(C(=O)NCc3ccc(OCF)cc3)c(N)c2c1C [Example B411] | 82% | 53 nM | –
52 | Cc1nnc2sc(C(=O)NCCNS(=O)(=O)c3ccc(F)cc3)c(N)c2c1C [Example B353] | 57% | 3400 nM | –
53 | Cc1ccccc1N1CCC(NC(=O)c2sc3nnc(C)c(C)c3c2N)C1 (centres unmarked) [Example B269] | 68% | 110 nM | –
54 | Cc1nnc2sc(C(=O)NCc3ccc(C(C)(O)C(F)(F)F)cc3)c(N)c2c1C (centres unmarked) [Example B106] | 71% | 20 nM | –
55 | Cc1nnc2sc(C(=O)NCc3cnccn3)c(N)c2c1C [Example B10] | 82% | > 10000 nM | –
56 | Cc1nnc2sc(C(=O)NC3CCN(c4ccc(Cl)cc4)C3)c(N)c2c1C (centres unmarked) [Example B274] | 69% | 41 nM | –
57 | Cc1nnc2sc(C(=O)NCc3ccco3)c(N)c2c1C [Example B102] | 81% | 1300 nM | –
58 | Cc1nnc2sc(C(=O)NC3CCCCC3)c(N)c2c1C [Example B97] | 75% | 1500 nM | –
59 | Cc1nnc2sc(C(=O)NCc3ccc(N4CCCC4=O)cc3)c(N)c2c1C [Example B238] | 68% | 130 nM | –
60 | Cc1nnc2sc(C(=O)NCc3ccc(C4(S(C)(=O)=O)CC4)cc3)c(N)c2c1C [Example B105] | 66% | 55 nM | –
61 | Cc1nnc2sc(C(=O)N3CCC(c4ccccc4)CC3)c(N)c2c1C [Example B115] | 38% | 3900 nM | –
62 | COc1ccc(C2CC2N(C)C(=O)c2sc3nnc(C)c(C)c3c2N)cc1 (centres unmarked) [Example B79] | 35% | > 10000 nM | –
63 | CC(=O)NCCNC(=O)c1sc2nnc(C)c(C)c2c1N [Example B366] | 32% | > 10000 nM | –
64 | Cc1nnc2sc(C(=O)NC3CN(C(=O)Oc4ccc(Cl)cc4)C3)c(N)c2c1C [Example B355] | 58% | 16 nM | –
